Assay results: ChEMBL document CHEMBL3621049, “Imidazole derivatives show anticancer potential by inducing apoptosis and cellular senescence” (2014)
The source made the active and inactive calls.

Legend:
Assay type in all cases: functional, cell-based
SK-MEL-28 = assay: Growth inhibition of human SK-MEL-28 cells at 10 uM by sulforhodamine B assay
IGROV-1 = assay: Growth inhibition of human IGROV1 cells at 10 uM by sulforhodamine B assay
SNB-75 = assay: Growth inhibition of human SNB75 cells at 10 uM by sulforhodamine B assay
SW-620 = assay: Growth inhibition of human SW620 cells at 10 uM by sulforhodamine B assay
A498 = assay: Growth inhibition of human A498 cells at 10 uM by sulforhodamine B assay
BT-549 = assay: Growth inhibition of human BT549 cells at 10 uM by sulforhodamine B assay
MDA-MB-468 = assay: Growth inhibition of human MDA-MB-468 cells at 10 uM by sulforhodamine B assay
T47D = assay: Growth inhibition of human T47D cells at 10 uM by sulforhodamine B assay
DU-145 = assay: Growth inhibition of human DU145 cells at 10 uM by sulforhodamine B assay
HOP-92 = assay: Growth inhibition of human HOP92 cells at 10 uM by sulforhodamine B assay
SK-MEL-5 = assay: Growth inhibition of human SK-MEL-5 cells at 10 uM by sulforhodamine B assay
SF-268 = assay: Growth inhibition of human SF268 cells at 10 uM by sulforhodamine B assay
SF-295 = assay: Growth inhibition of human SF295 cells at 10 uM by sulforhodamine B assay
OVCAR-4 = assay: Growth inhibition of human OVCAR4 cells at 10 uM by sulforhodamine B assay
UO-31 = assay: Growth inhibition of human UO31 cells at 10 uM by sulforhodamine B assay
TK-10 = assay: Growth inhibition of human TK10 cells at 10 uM by sulforhodamine B assay
CAKI-1 = assay: Growth inhibition of human Caki1 cells at 10 uM by sulforhodamine B assay
SNB-19 = assay: Growth inhibition of human SNB19 cells at 10 uM by sulforhodamine B assay
NCI-H460 = assay: Growth inhibition of human NCI-H460 cells at 10 uM by sulforhodamine B assay
NCI-H226 = assay: Growth inhibition of human NCI-H226 cells at 10 uM by sulforhodamine B assay
NCI-H522 = assay: Growth inhibition of human NCI-H522 cells at 10 uM by sulforhodamine B assay
HCT-15 = assay: Growth inhibition of human HCT15 cells at 10 uM by sulforhodamine B assay
SK-MEL-2 = assay: Growth inhibition of human SK-MEL-2 cells at 10 uM by sulforhodamine B assay
MDA-MB-435 = assay: Growth inhibition of human MDA-MB-435 cells at 10 uM by sulforhodamine B assay
MCF7 = assay: Growth inhibition of human MCF7 cells at 10 uM by sulforhodamine B assay
UACC-257 = assay: Growth inhibition of human UACC257 cells at 10 uM by sulforhodamine B assay
MOLT-4 = assay: Growth inhibition of human MOLT4 cells at 10 uM by sulforhodamine B assay
PC-3 = assay: Growth inhibition of human PC3 cells at 10 uM by sulforhodamine B assay
RPMI-8226 = assay: Growth inhibition of human RPMI8226 cells at 10 uM by sulforhodamine B assay
786-0 = assay: Growth inhibition of human 786-0 cells at 10 uM by sulforhodamine B assay
ACHN = assay: Growth inhibition of human ACHN cells at 10 uM by sulforhodamine B assay
OVCAR-5 = assay: Growth inhibition of human OVCAR5 cells at 10 uM by sulforhodamine B assay
A549 = assay: Growth inhibition of human A549/ATCC cells at 10 uM by sulforhodamine B assay
LOX IMVI = assay: Growth inhibition of human LOXIMVI cells at 10 uM by sulforhodamine B assay
U-251 = assay: Growth inhibition of human U251 cells at 10 uM by sulforhodamine B assay
UACC-62 = assay: Growth inhibition of human UACC62 cells at 10 uM by sulforhodamine B assay
SK-OV-3 = assay: Growth inhibition of human SKOV3 cells at 10 uM by sulforhodamine B assay
SN12C = assay: Growth inhibition of human SN12C cells at 10 uM by sulforhodamine B assay
RXF 393 = assay: Growth inhibition of human RXF393 cells at 10 uM by sulforhodamine B assay
K562 = assay: Growth inhibition of human K562 cells at 10 uM by sulforhodamine B assay
MDA-MB-231 = assay: Growth inhibition of human MDA-MB-231 cells at 10 uM by sulforhodamine B assay
HCT-116 = assay: Growth inhibition of human HCT116 cells at 10 uM by sulforhodamine B assay
SR = assay: Growth inhibition of human SR cells at 10 uM by sulforhodamine B assay
HT-29 = assay: Growth inhibition of human HT-29 cells at 10 uM by sulforhodamine B assay
SF-539 = assay: Growth inhibition of human SF539 cells at 10 uM by sulforhodamine B assay
OVCAR-8 = assay: Growth inhibition of human OVCAR8 cells at 10 uM by sulforhodamine B assay
OVCAR-3 = assay: Growth inhibition of human OVCAR3 cells at 10 uM by sulforhodamine B assay
KM12 = assay: Growth inhibition of human KM12 cells at 10 uM by sulforhodamine B assay
HCC 2998 = assay: Growth inhibition of human HCC2998 cells at 10 uM by sulforhodamine B assay
Hs-578T = assay: Growth inhibition of human Hs 578T cells at 10 uM by sulforhodamine B assay
Malme-3M = assay: Growth inhibition of human MALME-3M cells at 10 uM by sulforhodamine B assay
CCRF-CEM = assay: Growth inhibition of human CCRF-CEM cells at 10 uM by sulforhodamine B assay
NCI-H322M = assay: Growth inhibition of human NCI-H322M cells at 10 uM by sulforhodamine B assay
HL-60(TB) = assay: Growth inhibition of human HL-60(TB) cells at 10 uM by sulforhodamine B assay
NCI-H23 = assay: Growth inhibition of human NCI-H23 cells at 10 uM by sulforhodamine B assay
NCI/ADR-RES = assay: Growth inhibition of human NCI/ADR-RES cells at 10 uM by sulforhodamine B assay
HOP-62 = assay: Growth inhibition of human HOP62 cells at 10 uM by sulforhodamine B assay
M14 = assay: Growth inhibition of human M14 cells at 10 uM by sulforhodamine B assay
COLO 205 = assay: Growth inhibition of human COLO205 cells at 10 uM by sulforhodamine B assay

Measured: growth inhibition (GI)

COc1cc(-c2nc(-c3ccccc3)c(-c3ccccc3)n2Cc2ccccc2)ccc1OC1CCCCC1
active: SK-MEL-28 | IGROV-1 | SNB-75 | SW-620 | A498 | BT-549 | MDA-MB-468 | T47D | DU-145 | HOP-92 | SK-MEL-5 | SF-268 | SF-295 | OVCAR-4 | UO-31 | TK-10 | CAKI-1 | SNB-19 | NCI-H460 | NCI-H226 | NCI-H522 | HCT-15 | SK-MEL-2 | MDA-MB-435 | MCF7 | UACC-257 | MOLT-4 | PC-3 | RPMI-8226 | 786-0 | ACHN | OVCAR-5 | A549 | LOX IMVI | U-251 | UACC-62 | SK-OV-3 | SN12C | RXF 393 | K562 | MDA-MB-231 | HCT-116 | SR | HT-29 | SF-539 | OVCAR-8 | OVCAR-3 | KM12 | HCC 2998 | Hs-578T | Malme-3M | CCRF-CEM | NCI-H322M | HL-60(TB) | NCI-H23 | NCI/ADR-RES | HOP-62 | M14 | COLO 205

COc1cc(-c2nc(-c3ccccc3)c(-c3ccccc3)[nH]2)ccc1OC1CCCC1
active: SK-MEL-28 | IGROV-1 | SNB-75 | SW-620 | A498 | BT-549 | MDA-MB-468 | T47D | DU-145 | HOP-92 | SK-MEL-5 | SF-268 | SF-295 | OVCAR-4 | UO-31 | TK-10 | CAKI-1 | SNB-19 | NCI-H460 | NCI-H226 | NCI-H522 | HCT-15 | SK-MEL-2 | MDA-MB-435 | MCF7 | UACC-257 | MOLT-4 | PC-3 | RPMI-8226 | 786-0 | ACHN | OVCAR-5 | A549 | LOX IMVI | U-251 | UACC-62 | SK-OV-3 | SN12C | RXF 393 | K562 | MDA-MB-231 | HCT-116 | SR | HT-29 | SF-539 | OVCAR-8 | OVCAR-3 | KM12 | HCC 2998 | Hs-578T | Malme-3M | CCRF-CEM | NCI-H322M | HL-60(TB) | NCI-H23 | NCI/ADR-RES | HOP-62 | M14 | COLO 205
